Reference: patent publication US11091479B2, “Triazolopyridin-3-ones or their salts and pharmaceutical compositions comprising the same” (YUHAN CORPORATION, priority 2018, dated 2021)
Structures can show the parent of a compound that is named as a salt.

Columns and labels:
Assay type in all cases: biochemical
recombinant human VAP-1 = target: T1, recombinant human VAP-1 (Homo sapiens, UniProt Q16853); experiment: Activity on recombinant human VAP-1, HRP-coupled Amplex Red hydrogen peroxide assay, benzylamine substrate; conditions: 30 min incubation at 37° C., 1 mM benzylamine, read-out: Inhibitory Activity (IC50, nM) human VAP-1
T1 construct: purchased R&D systems
T1 sequence (Q16853 1-763): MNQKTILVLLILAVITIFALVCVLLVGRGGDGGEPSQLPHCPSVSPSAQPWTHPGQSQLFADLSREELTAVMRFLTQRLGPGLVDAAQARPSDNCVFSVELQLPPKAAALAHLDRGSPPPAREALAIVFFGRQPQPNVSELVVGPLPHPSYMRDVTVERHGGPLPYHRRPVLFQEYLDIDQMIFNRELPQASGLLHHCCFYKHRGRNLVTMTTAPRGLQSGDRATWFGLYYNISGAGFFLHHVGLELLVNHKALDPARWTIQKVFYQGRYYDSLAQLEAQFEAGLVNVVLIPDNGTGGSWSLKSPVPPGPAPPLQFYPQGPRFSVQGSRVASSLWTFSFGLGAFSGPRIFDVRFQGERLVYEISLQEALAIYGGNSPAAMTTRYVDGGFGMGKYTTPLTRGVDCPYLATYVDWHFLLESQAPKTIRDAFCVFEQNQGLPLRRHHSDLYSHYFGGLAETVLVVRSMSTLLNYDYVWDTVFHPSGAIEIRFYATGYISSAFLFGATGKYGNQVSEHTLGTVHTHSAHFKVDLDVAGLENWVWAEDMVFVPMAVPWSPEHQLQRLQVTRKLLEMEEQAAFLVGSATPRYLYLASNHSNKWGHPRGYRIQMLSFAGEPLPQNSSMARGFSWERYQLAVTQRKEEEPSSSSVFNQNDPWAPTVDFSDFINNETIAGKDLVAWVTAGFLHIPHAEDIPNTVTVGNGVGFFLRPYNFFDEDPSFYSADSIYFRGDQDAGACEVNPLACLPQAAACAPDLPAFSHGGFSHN
Experimental: (§1) The compounds according to the present technology were evaluated in terms of activity on recombinant human VAP-1 (R&D systems) by measuring the level of hydrogen peroxide in horseradish peroxidase (HRP)-coupled reaction using Amplex Red Hydrogen Peroxide Assay Kit (Molecular Probes, Invitrogen, USA). The experiment was carried out at room temperature using benzylamine as a substrate. In the HRP-coupled reaction, hydrogen peroxide oxidation of 10-acetyl-3,7-dihydroxyphenoxazine (Amplex Red reagent) produces resorufin, which is a highly fluorescent compound. Briefly, the test compound was dissolved in dimethyl sulfoxide (DMSO) at a concentration of 20 mM. The dose-response assessment was made by 1:3 serial dilution in DMSO, thereby creating a 8 point curve. The concentration of the upper part was controlled according to the efficacy of the compounds, followed by dilution with a reaction buffer solution to obtain a final DMSO concentration of less than 1%. To each well of a 96 black well plate, human VAP-1 purified in 50 mM sodium phosphate buffer solution (pH7.4) was added. The test compounds dissolved in DMSO were incubated with the human VAP-1 enzymes at 37° C. for 30 minutes. After 30-minute incubation, each well was added with a reaction mixture containing 200 uM Amplex Red reagent prepared from 50 mM sodium phosphate buffer solution (pH 7.4), 1 mM benzylamine, and 1 U/mL HRP. Fluorescence intensity was measured at several time points during 1-2 hours using a microplate reader (Flexstation3, Molecular Devices) under the wavelength condition exciting at 544 nm and reading the emission at 590 nm. The inhibitory effect of the compounds was measured as a decrease (%) in the signal rate as compared to the control group without any inhibitor (only diluted DMSO). Data was fixed to a logistic model with four variables and IC50 value was calculated using GraphPad Prism program.

[1] = target: T2, recombinant human DAO (diamine oxidase) (Homo sapiens, UniProt P19801); experiment: Activity on recombinant human DAO, method similar to VAP-1 assay, 1 mM putrescine substrate; conditions: read-out: Inhibitory Activity (IC50, nM) DAO
T2 construct: purchased R&D systems
T2 sequence (P19801 20-751): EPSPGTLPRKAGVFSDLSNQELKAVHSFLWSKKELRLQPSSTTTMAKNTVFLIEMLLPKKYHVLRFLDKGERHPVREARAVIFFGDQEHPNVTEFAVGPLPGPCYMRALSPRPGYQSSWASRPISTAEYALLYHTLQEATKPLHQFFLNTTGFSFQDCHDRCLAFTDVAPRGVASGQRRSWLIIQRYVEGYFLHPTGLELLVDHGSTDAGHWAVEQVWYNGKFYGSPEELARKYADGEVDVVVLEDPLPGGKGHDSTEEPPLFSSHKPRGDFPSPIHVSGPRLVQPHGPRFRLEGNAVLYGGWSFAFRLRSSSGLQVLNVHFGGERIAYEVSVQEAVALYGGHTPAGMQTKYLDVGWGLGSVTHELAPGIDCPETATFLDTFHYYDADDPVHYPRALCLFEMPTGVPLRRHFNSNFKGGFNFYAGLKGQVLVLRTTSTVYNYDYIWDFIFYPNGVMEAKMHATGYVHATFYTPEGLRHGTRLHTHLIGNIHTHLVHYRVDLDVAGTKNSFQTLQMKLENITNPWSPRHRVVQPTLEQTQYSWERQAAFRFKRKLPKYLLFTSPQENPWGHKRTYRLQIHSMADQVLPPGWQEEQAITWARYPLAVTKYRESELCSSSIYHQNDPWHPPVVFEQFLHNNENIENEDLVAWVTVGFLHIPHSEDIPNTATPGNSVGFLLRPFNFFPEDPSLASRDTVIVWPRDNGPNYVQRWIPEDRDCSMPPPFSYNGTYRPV
Experimental: as §1
(§2) In addition, the compounds according to the present technology were evaluated in terms of activity on a recombinant human MAO-A (monoamine oxidase-A, Sigma-Aldrich) and a recombinant human MAO-B(monoamine oxidase-B, Sigma-Aldrich) by using as substrates, 0.5 mM tyramine and 1 mM benzylamine, respectively, with a method similar to the activity evaluation method for recombinant human VAP-1. The compounds according to the present technology were also evaluated in terms of activity on a recombinant human DAO (diamine oxidase, R&D systems) by using as a substrate 1 mM putrescine with a method similar to the activity evaluation method for recombinant human VAP-1.

[2] = target: T3, recombinant human MAO-B (monoamine oxidase-B) (Homo sapiens, UniProt P27338); experiment: Activity on recombinant human MAO-B, method similar to VAP-1 assay, 1 mM benzylamine substrate; conditions: read-out: Inhibitory Activity (IC50, nM) MAO-B
T3 construct: purchased Sigma-Aldrich
T3 sequence (P27338 1-520): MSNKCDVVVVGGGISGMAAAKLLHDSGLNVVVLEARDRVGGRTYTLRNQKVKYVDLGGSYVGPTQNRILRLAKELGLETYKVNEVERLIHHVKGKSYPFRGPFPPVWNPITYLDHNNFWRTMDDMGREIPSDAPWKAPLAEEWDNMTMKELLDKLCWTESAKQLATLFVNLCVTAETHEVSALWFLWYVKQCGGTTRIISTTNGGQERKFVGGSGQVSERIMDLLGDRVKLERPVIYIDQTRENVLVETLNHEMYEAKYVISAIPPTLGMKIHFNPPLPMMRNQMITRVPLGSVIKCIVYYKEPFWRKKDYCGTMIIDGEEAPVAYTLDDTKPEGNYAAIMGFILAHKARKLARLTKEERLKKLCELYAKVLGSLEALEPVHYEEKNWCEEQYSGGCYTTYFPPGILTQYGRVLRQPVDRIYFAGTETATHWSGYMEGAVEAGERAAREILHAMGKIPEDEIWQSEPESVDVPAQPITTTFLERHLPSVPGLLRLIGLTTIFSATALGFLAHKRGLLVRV
Experimental: as §1, §2

[3] = target: T4, recombinant human MAO-A (monoamine oxidase-A) (Homo sapiens, UniProt P21397); experiment: Activity on recombinant human MAO-A, method similar to VAP-1 assay, 0.5 mM tyramine substrate; conditions: read-out: Inhibitory Activity (IC50, nM) MAO-A
T4 construct: purchased Sigma-Aldrich
T4 sequence (P21397 1-527): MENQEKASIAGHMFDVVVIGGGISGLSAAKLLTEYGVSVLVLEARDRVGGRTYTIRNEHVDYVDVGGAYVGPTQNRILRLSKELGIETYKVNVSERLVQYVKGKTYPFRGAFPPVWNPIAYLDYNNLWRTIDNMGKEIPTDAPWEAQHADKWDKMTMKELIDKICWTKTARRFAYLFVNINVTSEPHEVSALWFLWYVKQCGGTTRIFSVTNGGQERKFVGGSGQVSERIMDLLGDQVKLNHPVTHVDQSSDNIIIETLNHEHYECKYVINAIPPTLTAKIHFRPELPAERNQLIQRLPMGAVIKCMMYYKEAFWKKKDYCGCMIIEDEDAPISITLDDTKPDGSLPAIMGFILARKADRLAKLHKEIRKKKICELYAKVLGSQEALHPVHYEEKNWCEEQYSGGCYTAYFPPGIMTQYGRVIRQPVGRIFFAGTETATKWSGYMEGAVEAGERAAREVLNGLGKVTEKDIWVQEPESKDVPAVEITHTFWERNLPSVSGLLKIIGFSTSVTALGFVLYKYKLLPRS
Experimental: as §1, §2

IC50 (recombinant human VAP-1) [nM]	IC50 [1] [nM]	IC50 [2] [nM]	IC50 [3] [nM]	SMILES
87	100			NC/C(=C\F)Cn1nc2ccc(Br)cn2c1=O [Example 1, 2-[(2E)-2-(aminomethyl)-3-fluoroprop-2-en-1-yl]-6-bromo[1,2,4]triazolo[4,3-a]pyridin-3(2H)-one hydrochloride]
6.2	< 100	1780	68400	CC(=O)Nc1ccc(-c2ccc3nn(C/C(=C/F)CN)c(=O)n3c2)cc1 [Example 2, N-[4-[2-[(2E)-2-(aminomethyl)-3-fluoroprop-2-en-1-yl]-3-oxo-2,3-dihydro[1,2,4]triazolo[4,3-a]pyridin-6-yl]phenyl]acetamide trifluoroacetate]
3.6	< 100	231	> 100000	CS(=O)(=O)c1ccc(-c2ccc3nn(C/C(=C/F)CN)c(=O)n3c2)cc1 [Example 3, 2-[(2E)-2-(aminomethyl)-3-fluoroprop-2-en-1-yl]-6-[4-(methylsulfonyl)phenyl][1,2,4]triazolo[4,3-a]pyridin-3(2H)-one trifluoroacetate]
2	< 100	1450	> 100000	NC/C(=C\F)Cn1nc2ccc(-c3ccc(-c4nc[nH]n4)cc3)cn2c1=O [Example 5, 2-[(2E)-2-(aminomethyl)-3-fluoroprop-2-en-1-yl]-6-[4-(1H-1,2,4-triazol-3-yl)phenyl][1,2,4]triazolo[4,3-a]pyridin-3(2H)-one trifluoroacetate]
14	< 100			CC(=O)Nc1cc(-c2ccc3nn(C/C(=C/F)CN)c(=O)n3c2)ccn1 [Example 8, N-[4-[2-[(2E)-2-(aminomethyl)-3-fluoroprop-2-en-1-yl]-3-oxo-2,3-dihydro[1,2,4]triazolo[4,3-a]pyridin-6-yl]pyridin-2-yl]acetamide trifluoroacetate]
3.7	0.2	39		NC/C(=C\F)Cn1nc2ccc(-c3ccc(N4CCOCC4)nc3)cn2c1=O [Example 11, 2-[(2E)-2-(aminomethyl)-3-fluoroprop-2-en-1-yl]-6-[6-(morpholin-4-yl)pyridin-3-yl][1,2,4]triazolo[4,3-a]pyridin-3(2H)-one hydrochloride]

Continued, compound first:

SMILES	IC50 (recombinant human VAP-1) [nM]	IC50 [1] [nM]	IC50 [2] [nM]	IC50 [3] [nM]
NC/C(=C\F)Cn1nc2ccc(-c3ccc(S(=O)(=O)N4CCOCC4)cc3)cn2c1=O [Example 4, 2-[(2E)-2-(aminomethyl)-3-fluoroprop-2-en-1-yl]-6-[4-(morpholin-4-ylsulfonyl)phenyl][1,2,4]triazolo[4,3-a]pyridin-3(2H)-one trifluoroacetate]	6.2	< 100	> 10000	> 100000
CC(=O)Nc1ccc(-c2cccc3nn(C/C(=C/F)CN)c(=O)n23)cc1 [Example 18, N-[4-[2-[(2E)-2-(aminomethyl)-3-fluoroprop-2-en-1-yl]-3-oxo-2,3-dihydro[1,2,4]triazolo[4,3-a]pyridin-5-yl]phenyl]acetamide trifluoroacetate]	90			
NC/C(=C\F)Cn1nc2cccc(-c3ccc(-c4ccon4)cc3)n2c1=O [Example 19, 2-[(2E)-2-(aminomethyl)-3-fluoroprop-2-en-1-yl]-5-[4-(1,2-oxazol-3-yl)phenyl][1,2,4]triazolo[4,3-a]pyridin-3(2H)-one trifluoroacetate]	38			
NC/C(=C\F)Cn1nc2cccc(-c3ccc4c(c3)OCO4)n2c1=O [Example 20, 2-[(2E)-2-(aminomethyl)-3-fluoroprop-2-en-1-yl]-5-(1,3-benzodioxol-5-yl)[1,2,4]triazolo[4,3-a]pyridin-3(2H)-one trifluoroacetate]	> 100			
NC/C(=C\F)Cn1nc2cccc(-c3ccc4nonc4c3)n2c1=O [Example 21, 2-[(2E)-2-(aminomethyl)-3-fluoroprop-2-en-1-yl]-5-(2,1,3-benzoxadiazol-5-yl)[1,2,4]triazolo[4,3-a]pyridin-3(2H)-one trifluoroacetate]	150			
NC/C(=C\F)Cn1nc2cc(-c3ccc(N4CCOCC4)nc3)ccn2c1=O [Example 33, 2-[(2E)-2-(aminomethyl)-3-fluoroprop-2-en-1-yl]-7-[6-(morpholin-4-yl)pyridin-3-yl][1,2,4]triazolo[4,3-a]pyridin-3(2H)-one hydrochloride]	0.4	5.8	130	
